According to patent publication US12252524B2, “GIP/GLP1 co-agonist compounds” (Eli Lilly and Company, priority 2018, dated 2025):
Numbered stars: 1 amine (or outer) side, 2 acyl side, 3 side chain; on linkers, the order of the positions; unused ones are H or OH. Square brackets hold non-standard residues; d marks the D form. Side chains are listed from the residue outwards. Peptide text beside a SMILES is read from it. * marks the point of attachment. C20 diacid = O=C(O)CCCCCCCCCCCCCCCCCCC(=O)*; C18 diacid = O=C(O)CCCCCCCCCCCCCCCCC(=O)*; γGlu = O=C(O)[C@H](CCC(=O)[*:2])N[*:1]; αMeL = CC(C)C[C@](C)(N)C(=O)O; Orn = NCCC[C@H](N)C(=O)O; AEEA = NCCOCCOCC(=O)O; Aib = CC(C)(N)C(=O)O

Assays:
[1] = in vitro
Experimental: The stability of peptides are compared in 1% rat small intestinal fluid (rSIF). The amount of intact peptide is measured for a sample peptide at 0, 3, 15, and 30 minutes to assess proteolytic stability. The amount of intact peptide for a sample peptide is measured in 90% pig small intestinal fluid (pSIF) at 0, 30, 45, and 60 minutes to assess the proteolytic stability.
Peptides are prepared at 0.4 mg/mL in 50 mM Tris pH8.0. […] The mixture is incubated at 37° C. at 150 rpm. Thirty μL of each sample are removed and placed into a new tube before the rSIF is added and at […]. At each time point, the reaction was quenched by 1% TFA in 50% ACN at 1:1. The samples are diluted 100 times using dilution buffer (1:1 of 1% TFA in 50% ACN: 50 mM Tris pH8) and ready for analysis using mass spectrometry (MS).
The data analysis is performed using MassLynx.

[2] = molecular target: T1, human GLP-1R (Homo sapiens, UniProt P43220); assay: [125I]-GLP-1 binding (SPA), human GLP-1 receptor; set-up: expressed in transfected cells; crude membranes; conditions: read-out: hGLP1R Ki, (nM) (SEM, n)
T1 sequence (P43220 24-463): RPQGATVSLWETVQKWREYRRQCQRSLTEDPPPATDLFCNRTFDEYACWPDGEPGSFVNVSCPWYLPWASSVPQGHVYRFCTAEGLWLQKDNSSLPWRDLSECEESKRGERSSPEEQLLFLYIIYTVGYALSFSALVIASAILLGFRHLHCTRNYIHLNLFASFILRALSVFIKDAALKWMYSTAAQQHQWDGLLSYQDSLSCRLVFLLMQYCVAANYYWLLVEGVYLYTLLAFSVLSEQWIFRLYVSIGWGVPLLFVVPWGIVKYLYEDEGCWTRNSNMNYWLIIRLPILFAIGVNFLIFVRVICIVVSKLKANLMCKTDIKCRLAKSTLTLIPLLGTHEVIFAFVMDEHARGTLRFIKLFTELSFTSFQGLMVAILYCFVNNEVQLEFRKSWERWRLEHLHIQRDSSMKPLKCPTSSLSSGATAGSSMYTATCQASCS
Summary of the method: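 Assay buffer: HEPES 25 mM, pH 7.4, CaCl2 2.5 mM, MgCl2 1 mM, with EDTA-free protease inhibitors. Receptor came from crude cell membranes prepared by homogenization and centrifugation at 4° C. IC50s came from four-parameter fits (maximum, minimum, IC50, Hill slope) and were expressed as Ki geometric means with SEM.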

[3] = molecular target: human GLP-1 receptor (GLP-1R) (Homo sapiens, UniProt P43220); assay: cAMP pharmacological functional assay in presence of casein, hGLP-1R; type: cell-based; conditions: HEK293 cells expressing hGLP-1R, 0.1% Casein, geometric mean; read-out: hGLP1R cAMP Rel EC50 nM (SEM, n)
Sequence of human GLP-1 receptor (GLP-1R) (P43220 24-463): as above

[4] = molecular target: T2, human GIP receptor (Homo sapiens, UniProt P48546); assay: [125I]-GIP binding (SPA), human GIP receptor; conditions: read-out: hGIPR Ki, nM (SEM, n)
T2 construct: expressed in transfected cells; crude membranes
T2 sequence (P48546 22-466): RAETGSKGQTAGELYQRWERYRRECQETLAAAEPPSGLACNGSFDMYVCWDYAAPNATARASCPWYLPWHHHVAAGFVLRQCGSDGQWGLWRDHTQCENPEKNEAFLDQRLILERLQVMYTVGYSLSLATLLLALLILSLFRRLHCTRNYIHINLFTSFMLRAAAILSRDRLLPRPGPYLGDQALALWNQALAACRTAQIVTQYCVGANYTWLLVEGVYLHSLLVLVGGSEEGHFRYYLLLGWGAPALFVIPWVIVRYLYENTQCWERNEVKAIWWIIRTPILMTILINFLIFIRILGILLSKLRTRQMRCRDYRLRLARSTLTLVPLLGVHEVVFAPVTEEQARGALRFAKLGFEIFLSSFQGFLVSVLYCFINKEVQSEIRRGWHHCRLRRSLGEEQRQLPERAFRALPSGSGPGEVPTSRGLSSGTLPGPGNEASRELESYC

[5] = molecular target: T3, human Gcg receptor (Homo sapiens, UniProt P47871); assay: [125I]-Glucagon binding (SPA), human Gcg receptor; conditions: read-out: hGLcgR Ki, nM (SEM, n)
T3 construct: expressed in transfected cells; crude membranes
T3 sequence (P47871 26-477): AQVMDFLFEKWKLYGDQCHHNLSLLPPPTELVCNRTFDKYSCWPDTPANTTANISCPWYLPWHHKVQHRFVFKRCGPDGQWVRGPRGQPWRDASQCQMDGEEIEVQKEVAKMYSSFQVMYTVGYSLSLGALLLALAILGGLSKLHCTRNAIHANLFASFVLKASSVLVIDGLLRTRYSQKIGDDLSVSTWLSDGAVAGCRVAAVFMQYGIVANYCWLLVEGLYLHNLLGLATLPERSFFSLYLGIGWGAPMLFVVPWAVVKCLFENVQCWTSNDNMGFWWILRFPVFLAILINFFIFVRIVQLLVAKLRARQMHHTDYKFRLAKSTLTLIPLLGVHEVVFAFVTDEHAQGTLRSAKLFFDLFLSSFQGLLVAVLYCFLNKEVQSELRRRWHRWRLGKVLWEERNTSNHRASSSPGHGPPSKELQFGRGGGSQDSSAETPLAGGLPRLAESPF
Summary of the method: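 Crude membranes from cells expressing the receptor, prepared by hypotonic lysis in 50 mM Tris HCl pH 7.5 with protease inhibitors, homogenization and differential centrifugation, were used in a WGA-bead SPA. Binding buffer: 25 mM HEPES pH 7.4, 2.5 mM CaCl2, 1 mM MgCl2, bacitracin, Tween-20.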

[6] = molecular target: T4, gastric inhibitory peptide receptor (GIPR) (Homo sapiens, UniProt P48546); assay: cAMP pharmacological functional assay in presence of casein, hGIPR; type: cell-based; conditions: HEK293 cells expressing hGIPR, 0.1% Casein, geometric mean; read-out: hGIPR cAMP Rel EC50 nM (SEM, n)
T4 sequence (P48546 22-466): T2 sequence (P48546 22-466)

[7] = molecular target: T1, human GLP-1R; assay: GLP-1R CHO cell β-arrestin recruitment assay; type: cell-based; set-up: host or cells: CHO-K1 PathHunter cells, assay-ready frozen; conditions: for EC50: CHO-K1 cells, PathHunter β-arrestin-2 recruitment, 0.1% casein, read-out: hGLP1R B-Arrestin2 Rel EC50 uM (SEM, n); for hGLP1R B-Arrestin2 % Top: normalized to GLP-1 maximum control
Summary of the method: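 Peptide-induced β-arrestin-2 recruitment measured by enzyme-fragment complementation luminescence after 90 min at 37 °C plus 60 min detection at RT.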

[8] = molecular target: T1, human GLP-1R; assay: GLP-1R HEK293 cell membrane [35S]GTPγS binding assay; type: biochemical; set-up: expressed in transfected cells; host or cells: HEK293 cells expressing human GLP-1R; membranes; conditions: HEK293 cell membranes expressing human GLP-1R, [35S]GTPγS binding; read-out: hGLP1R GTPgS Rel EC50 nM (SEM, n)
Summary of the method: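 Agonist-driven Gαs activation read as [35S]GTPγS ([…]) binding to receptor-expressing HEK293 membranes, 30 min at room temperature, pH 7.4. Detection by anti-Gαs immunocapture on scintillation beads; EC50 derived from four-parameter logistic concentration-response fit.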

[9] = rat, real gastrointestinal fluid or homogenate, pH 8

SMILES | percentage of peptide not cleaved using rSIF [1] | remaining at 0.05 h, 0.4 mg/mL [1, 9] | remaining at 0.25 h, 0.4 mg/mL [1, 9] | remaining at 1 h, 0.4 mg/mL [1, 9] | Ki [2] | EC50 [3] | Ki [4] | Ki [5] | EC50 [6] | EC50 [7] | hGLP1R B-Arrestin2 % Top [7] | EC50 [8]
CC[C@H](C)[C@H](NC(=O)[C@H](CC(C)C)NC(=O)[C@H](Cc1ccc(O)cc1)NC(=O)[C@H](CCC(=O)O)NC(=O)[C@@H](NC(=O)[C@H](Cc1ccccc1)NC(=O)[C@H](C)NC(=O)C(C)(C)NC(=O)[C@H](CCC(N)=O)NC(=O)[C@H](C)NC(=O)[C@H](CCCCNC(=O)COCCOCCNC(=O)COCCOCCNC(=O)CC[C@H](NC(=O)CCCCCCCCCCCCCCCCCCC(=O)O)C(=O)O)NC(=O)[C@H](CCCCN)NC(=O)[C@H](CC(=O)O)NC(=O)[C@H](CC(C)C)NC(=O)[C@](C)(CC(C)C)NC(=O)[C@@H](NC(=O)[C@H](CO)NC(=O)[C@H](Cc1ccc(O)cc1)NC(=O)[C@H](CC(=O)O)NC(=O)[C@H](CO)NC(=O)[C@@H](NC(=O)[C@](C)(Cc1ccccc1)NC(=O)[C@@H](NC(=O)CNC(=O)[C@H](CCC(=O)O)NC(=O)C(C)(C)NC(=O)[C@@H](N)Cc1ccc(O)cc1)[C@@H](C)O)[C@@H](C)O)[C@@H](C)CC)[C@@H](C)CC)C(=O)N[C@@H](CCC(=O)O)C(=O)NCC(=O)NCC(=O)N1CCC[C@H]1C(=O)N[C@@H](CO)C(=O)N[C@@H](CO)C(=O)NCC(=O)N[C@@H](C)C(=O)N1CCC[C@H]1C(=O)N1CCC[C@H]1C(=O)N1CCC[C@H]1C(=O)N[C@@H](CO)C(N)=O [Example 69] | 100% | 2.2% | 0% | 0% | 1.22 nM | 0.0844 nM | 0.03 nM | 22.1 nM | 0.0712 nM | – | – | –
CC[C@H](C)[C@H](NC(=O)[C@H](CC(C)C)NC(=O)[C@H](Cc1ccc(O)cc1)NC(=O)[C@H](CCC(=O)O)NC(=O)[C@@H](NC(=O)[C@H](Cc1ccccc1)NC(=O)[C@H](C)NC(=O)C(C)(C)NC(=O)[C@H](CCC(N)=O)NC(=O)[C@H](C)NC(=O)[C@H](CCCCNC(=O)COCCOCCNC(=O)COCCOCCNC(=O)CC[C@H](NC(=O)CCCCCCCCCCCCCCCCC(=O)O)C(=O)O)NC(=O)[C@H](CCCCN)NC(=O)[C@H](CC(=O)O)NC(=O)[C@H](CC(C)C)NC(=O)[C@H](CC(C)C)NC(=O)[C@@H](NC(=O)[C@H](CO)NC(=O)[C@H](Cc1ccc(O)cc1)NC(=O)[C@H](CC(=O)O)NC(=O)[C@H](CO)NC(=O)[C@@H](NC(=O)[C@H](Cc1ccccc1)NC(=O)[C@@H](NC(=O)CNC(=O)[C@H](CCC(=O)O)NC(=O)C(C)(C)NC(=O)[C@@H](N)Cc1ccc(O)cc1)[C@@H](C)O)[C@@H](C)O)[C@@H](C)CC)[C@@H](C)CC)C(=O)N[C@@H](CCC(=O)O)C(=O)NCC(=O)NCC(=O)N1CCC[C@H]1C(=O)N[C@@H](CO)C(=O)N[C@@H](CO)C(=O)NCC(N)=O [Example 266] (H-Y[Aib]EGTFTSDYSILLDKK([AEEA-AEEA-γGlu-C18 diacid])AQ[Aib]AFIEYLIEGGPSSG-NH2) | – | – | – | – | 2.01 nM | 0.0883 nM | 0.0666 nM | 193 nM | 0.0442 nM | 0.016 µM | 17.1% | 0.865 nM
CC[C@H](C)[C@H](NC(=O)[C@H](CC(C)C)NC(=O)[C@H](Cc1ccc(O)cc1)NC(=O)[C@@H](CCC(=O)O)NC(=O)[C@@H](NC(=O)[C@H](Cc1ccccc1)NC(=O)[C@H](CCC(=O)O)NC(=O)C(C)(C)NC(=O)[C@H](CCC(N)=O)NC(=O)[C@H](C)NC(=O)[C@H](CCCCNC(=O)COCCOCCNC(=O)COCCOCCNC(=O)CC[C@H](NC(=O)CCCCCCCCCCCCCCCCCCC(=O)O)C(=O)O)NC(=O)[C@H](CCCN)NC(=O)[C@H](CC(=O)O)NC(=O)[C@H](CC(C)C)NC(=O)[C@](C)(CC(C)C)NC(=O)[C@@H](NC(=O)[C@H](CO)NC(=O)[C@H](Cc1ccc(O)cc1)NC(=O)[C@H](CC(=O)O)NC(=O)[C@H](CO)NC(=O)[C@@H](NC(=O)[C@H](Cc1ccccc1)NC(=O)[C@@H](NC(=O)CNC(=O)[C@H](CCC(=O)O)NC(=O)C(C)(C)NC(=O)[C@H](N)Cc1ccc(O)cc1)[C@@H](C)O)[C@@H](C)O)[C@@H](C)CC)[C@@H](C)CC)C(=O)N[C@@H](C)C(=O)NCC(=O)NCC(=O)N1CCC[C@H]1C(=O)N[C@@H](CO)C(=O)N[C@@H](CO)C(=O)NCC(=O)N[C@@H](C)C(=O)N1CCC[C@H]1C(=O)N1CCC[C@H]1C(=O)N1CCC[C@H]1C(=O)N[C@@H](CO)C(N)=O [Example 354] (H-[dY][Aib]EGTFTSDYSI[αMeL]LD[Orn]K([AEEA-AEEA-γGlu-C20 diacid])AQ[Aib]EFI[dE]YLIAGGPSSGAPPPS-NH2; N-terminus assumed) | – | – | – | – | 7.85 nM | 0.54 nM | 0.175 nM | > 953 nM | 0.233 nM | 0.255 µM | 22.7% | 0.967 nM
CC[C@H](C)[C@H](NC(=O)[C@H](CC(C)C)NC(=O)[C@H](Cc1ccc(O)cc1)NC(=O)[C@H](CCC(=O)O)NC(=O)[C@@H](NC(=O)[C@H](Cc1ccccc1)NC(=O)[C@H](C)NC(=O)C(C)(C)NC(=O)[C@H](CCC(N)=O)NC(=O)[C@H](C)NC(=O)[C@H](CCCCNC(=O)COCCOCCNC(=O)COCCOCCNC(=O)CC[C@H](NC(=O)CCCCCCCCCCCCCCCCCCC(=O)O)C(=O)O)NC(=O)[C@H](CCCCN)NC(=O)[C@H](CC(=O)O)NC(=O)[C@H](CC(C)C)NC(=O)[C@](C)(CC(C)C)NC(=O)[C@@H](NC(=O)[C@H](CO)NC(=O)[C@H](Cc1ccc(O)cc1)NC(=O)[C@H](CC(=O)O)NC(=O)[C@H](CO)NC(=O)[C@@H](NC(=O)[C@H](Cc1ccccc1)NC(=O)[C@@H](NC(=O)CNC(=O)[C@H](CCC(=O)O)NC(=O)C(C)(C)NC(=O)[C@@H](N)Cc1ccccc1)[C@@H](C)O)[C@@H](C)O)[C@@H](C)CC)[C@@H](C)CC)C(=O)N[C@@H](C)C(=O)NCC(=O)NCC(=O)N1CCC[C@H]1C(=O)N[C@@H](CO)C(=O)N[C@@H](CO)C(=O)NCC(=O)N[C@@H](C)C(=O)N1CCC[C@H]1C(=O)N1CCC[C@H]1C(=O)N1CCC[C@H]1C(=O)N[C@@H](CO)C(N)=O [Example 337] (H-F[Aib]EGTFTSDYSI[αMeL]LDKK([AEEA-AEEA-γGlu-C20 diacid])AQ[Aib]AFIEYLIAGGPSSGAPPPS-NH2) | – | – | – | – | 1.61 nM | 0.173 nM | 0.0363 nM | 335 nM | 0.0515 nM | 0.0174 µM | 34.1% | 0.322 nM
